How the values were obtained:
basophils = test: Basophil activation test (BAT) by flow cytometry; type: cell-based, human; conditions: for BAT result (stimulation index): 5, 1 and 0.2 mM, 25 patients selective for CLV and 15 tolerant controls, positive at the highest concentration, FIG. 3; for stimulation indices in patients compared to controls: 8, 4, 2, 1 mM, 7 patients positive for Clav 2 vs 6 controls, p=0.003 Clav 2 and p=0.015 Clav 5 at 8 mM, p=0.015 Clav 2 at 4 mM, FIG. 5
Description: The “basophil activation test” or “BAT” is an in vitro functional test which detects the activation of basophils after a stimulus with a specific antigen by detecting the expression of cell surface activation markers, which is usually monitored by flow cytometry using fluorescent monoclonal antibodies. Therefore, this test is used for the in vitro diagnosis of allergies. The technique comprises several steps: drawing blood and preparing the solution or suspension, performing stimulation with allergen(s), performing cellular marking with fluorescent antibodies which discriminate activated basophils, and performing counting in a flow cytometer. The technique can be carried out using as the substrate whole blood or the buffy coat previously isolated from the whole blood sample.
The BAT was performed as described by Torres M J et al. (Torres M J, et al. Clin Exp Allergy 2004; 34:1768-75) with CLV (Sigma Aldrich, Saint Louis, USA). […] The cells were stained with monoclonal antibodies, anti-CD63-FITC, CD203c-PE, CCR3-APC (Caltag Laboratories, Burlingame, Calif.), and measured in a FACSCalibur flow cytometer (Becton-Dickinson Bioscience, San José, Calif.) acquiring at least 500-1000 basophils per sample. The results were analyzed with FlowJo® software (Tree Star, Inc. USA), and the activation was expressed as a stimulation index (SI), calculated as the ratio between the percentage of activated basophils (CD63+ or CD203c+cells) in samples stimulated with different haptenes and non-stimulated sample. To calculate the SI, the percentage of spontaneously activated basophils was required to be equal to or greater than 5%, as described by Sanz M L et al. (Sanz M L, et al. Clin Exp Allergy 2002; 32:277-86).

[1] = tested on: IgE-mediated basophil activation pathway; test: BAT with wortmannin (WTM) inhibition of the IgE-mediated basophil activation pathway; type: cell-based, human; conditions: WTM 1 μM; 8 mM: p=0.002 Clav2, p=0.001 Clav 5; 4 mM: p=0.001 both; FIG. 7
Protocol: To confirm that the activation of basophils was mediated by IgE, the inhibitory effect of wortmannin at 1 μM was analyzed. Wortmannin acts as a specific inhibitor of phosphatidylinositol 3-kinase (Pl3-K), which has proven to be one of the most important FceRI receptor-activated kinases involved in human basophil IgE-mediated stimulation. This was used with the positive control (anti-IgE) and the different haptenes and synthesized structures at the same concentrations described above.

[2] = 15 tolerant subjects, cutoff SI CLV >1.5, Clav 2 >3 (ROC curves), FIG. 4
[3] = 25 patients selective for CLV, cutoff SI CLV >1.5, Clav 2 >3 (ROC curves), FIG. 4
[4] = 6 tolerant controls, same cutoff point, FIG. 6
[5] = 7 patients positive for Clav 2 in the preceding test, same cutoff point, FIG. 6

Structure (SMILES): O=C(O)[C@H]1/C(=C/CO)O[C@@H]2CC(=O)N21 [CLV, (3R,5R,Z)-2-(2-hydroxyethylidene)-7-oxo-1-oxa-4-aza-bicyclo[3.2.0]heptane-3-carboxylic acid, reference compound]
- percentage of positive cases in BAT (basophils; [2]): 13.3%
- percentage of positive cases in BAT (basophils; [3]): 24%

Structure (SMILES): CCCCNC(=O)CC(OC)OC [Clav 1, N-butyl-3,3-dimethoxypropanamide]
- BAT result (stimulation index) (basophils; first phase): only Clav 2 provided positive results

Structure (SMILES): CC(C)COC(=O)OC(=O)CC(=O)OC(=O)OCC(C)C [Clav 2, bis-((isobutoxycarbonyl)oxy)-1,3-dioxopropanoic anhydride]
- basophil activation after prior incubation with WTM [1]: IgE-mediated and specific
- percentage of positive cases in BAT (basophils; [4]): no positive case
- percentage of positive cases in BAT (basophils; [5]): 85.7%
- stimulation indices in patients compared to controls (basophils): higher stimulation indices
- percentage of positive cases in BAT (basophils; [2]): 33.3%
- percentage of positive cases in BAT (basophils; [3]): 56%
- BAT result (stimulation index) (basophils; first phase): positive results
- stimulation index in patients compared to the tolerant controls (basophils; first phase, 25 patients selective for CLV vs 15 tolerant controls, p<0.0001 (Mann-Whitney)): significantly higher

Structure (SMILES): CCCCNC(=O)CCN [Clav 3, 3-amino-N-butylpropanamide]
- BAT result (stimulation index) (basophils; first phase): only Clav 2 provided positive results

Structure (SMILES): NCCC(=O)O [Clav 4, 3-aminopropanoic acid]
- BAT result (stimulation index) (basophils; first phase): only Clav 2 provided positive results

Structure (SMILES): CCOC(CC(=O)OC(=O)CC(OCC)OCC)OCC [Clav 5, 3,3-diethoxypropanoic anhydride]
- basophil activation after prior incubation with WTM [1]: IgE-mediated and specific
- percentage of positive cases in BAT (basophils; [4]): 28.6%
- percentage of positive cases in BAT (basophils; [5]): 71.4%
- stimulation indices in patients compared to controls (basophils): higher stimulation indices

Source: US20200055808A1, “COMPOSITION FOR USE IN DETECTING AN ALLERGY TO CLAVULANIC ACID” (SERVICIO ANDALUZ DE SALUD, priority 2016, published 2020)
